Changes are numbered by the printed parent chain.
Experiments:
ALDOA = molecular target: T1, ALDOA (Homo sapiens, UniProt P04075); experiment: aldolase/TPI/GPDH-coupled NADH assay; assay type: biochemical
T1 construct: full-length, His-tagged, bacterially expressed and purified
T1 sequence (P04075 2-364): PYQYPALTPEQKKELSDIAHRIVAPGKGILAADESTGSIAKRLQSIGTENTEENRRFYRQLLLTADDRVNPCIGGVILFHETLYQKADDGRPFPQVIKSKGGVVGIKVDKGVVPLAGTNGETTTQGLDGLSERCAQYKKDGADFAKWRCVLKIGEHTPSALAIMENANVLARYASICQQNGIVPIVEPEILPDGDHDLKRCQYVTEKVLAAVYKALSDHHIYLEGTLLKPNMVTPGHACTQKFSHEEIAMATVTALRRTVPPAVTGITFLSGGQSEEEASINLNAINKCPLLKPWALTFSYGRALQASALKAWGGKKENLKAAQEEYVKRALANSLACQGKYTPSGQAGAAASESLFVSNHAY

rabbit aldolase (ALDOA) = molecular target: T2, rabbit aldolase (ALDOA) (Oryctolagus cuniculus, UniProt P00883); experiment: SPR (CM5 chip, Biacore 8K); also MS adduct on Lys230 and enzymatic inhibition (IC50 about […]); assay type: binding
T2 construct: rabbit aldolase (ammonium sulfate precipitated; A8811)
T2 sequence (P00883 2-364): T1 sequence (P04075 2-364) with Y2H, Q3S, Y4H, F243Y, I267V, V358I

CCCCCCCCCCCCCCCCn1cc[n+](Cc2c(Cl)cccc2Cl)c1C [LXY-05-029, aldometanib]
IC50 (ALDOA): ~50 µM
Kd (rabbit aldolase (ALDOA)): ~20 µM
